We go through 32 compounds from ChEMBL document CHEMBL1681717, “Design and synthesis of a novel, orally active, brain penetrant, tri-substituted thiophene based JNK inhibitor” (Bioorg Med Chem Lett, 2011).

In data set [1] the test system is MDR1. The experiment in a line: Efflux ratio of permeability from basolateral to apical side over apical to basolateral side in MDCK2 cells expressing MDR1. Format: ADME, cell-based, Canis lupus familiaris, MDCK-II. The settings on record: dog, MDCK-MDR1.
Data set [2] concerns the target Mitogen-activated protein kinase 8 (Homo sapiens, UniProt P45983). The experiment in a line: Inhibition of recombinant JNK1 after 60 mins by TR-FRET assay. (In general: TR-FRET usually uses a lanthanide donor and a delayed reading to cut background.)
Data set [3] relates to MDR1. Briefly: Apparent permeability of the compound from apical to basolateral direction in MDCK2 cells expressing MDR1. Format: ADME, cell-based, Canis lupus familiaris, MDCK-II. Particulars: dog, MDCK-MDR1.
A short description of data set [4]: Oxidative metabolic stability in human liver microsomes assessed as compound remaining at 5 uM after 120 mins. Format: ADME, Microsome. Particulars: read-out: Stability.
Data set [5] in a line: Oxidative metabolic stability in mouse liver microsomes assessed as compound remaining at 5 uM after 120 mins. The class given is ADME, Microsome. The settings on record: read-out: Stability. In general terms: Microsomes from liver hold many membrane-bound enzymes, among them those of drug oxidation.
For data set [6], the target named is Mitogen-activated protein kinase 1 (Homo sapiens, UniProt P28482). Briefly: Inhibition of recombinant ERK2 after 60 mins by TR-FRET assay.
Mitogen-activated protein kinase 1, sequence (P28482 whole entry): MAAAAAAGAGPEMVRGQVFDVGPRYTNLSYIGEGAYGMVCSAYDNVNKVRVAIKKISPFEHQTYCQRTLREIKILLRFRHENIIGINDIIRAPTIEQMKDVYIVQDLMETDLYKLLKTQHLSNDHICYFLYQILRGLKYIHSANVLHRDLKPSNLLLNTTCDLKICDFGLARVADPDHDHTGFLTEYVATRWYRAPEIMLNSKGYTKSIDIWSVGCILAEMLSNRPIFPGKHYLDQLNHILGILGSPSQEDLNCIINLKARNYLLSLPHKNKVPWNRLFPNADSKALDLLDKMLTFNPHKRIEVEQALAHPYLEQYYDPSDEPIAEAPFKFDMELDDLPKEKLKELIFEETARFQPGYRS
Data set [7] concerns the target Mitogen-activated protein kinase 9 (Homo sapiens, UniProt P45984). Briefly: Inhibition of recombinant JNK2 after 60 mins by TR-FRET assay.
For data set [8], the target named is Mitogen-activated protein kinase 10 (Homo sapiens, UniProt P53779). The experiment in a line: Inhibition of recombinant JNK3 after 60 mins by TR-FRET assay.
Mitogen-activated protein kinase 10, sequence (P53779 whole entry): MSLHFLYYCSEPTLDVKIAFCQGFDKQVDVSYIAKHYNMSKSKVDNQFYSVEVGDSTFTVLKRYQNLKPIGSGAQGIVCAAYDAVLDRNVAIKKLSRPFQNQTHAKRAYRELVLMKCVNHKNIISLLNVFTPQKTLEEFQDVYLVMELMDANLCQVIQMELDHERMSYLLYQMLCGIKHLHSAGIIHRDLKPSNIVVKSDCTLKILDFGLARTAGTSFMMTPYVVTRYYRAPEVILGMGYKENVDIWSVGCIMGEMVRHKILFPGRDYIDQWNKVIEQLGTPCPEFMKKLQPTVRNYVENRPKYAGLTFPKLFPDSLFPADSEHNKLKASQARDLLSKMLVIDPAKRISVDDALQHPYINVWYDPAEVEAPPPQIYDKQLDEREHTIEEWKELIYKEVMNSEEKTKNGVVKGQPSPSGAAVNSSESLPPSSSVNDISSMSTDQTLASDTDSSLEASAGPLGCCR
For data set [9], the target named is Mitogen-activated protein kinase 14 (Homo sapiens, UniProt Q16539). Briefly: Inhibition of recombinant p38alpha after 60 mins by TR-FRET assay.
Mitogen-activated protein kinase 14, sequence (Q16539 whole entry): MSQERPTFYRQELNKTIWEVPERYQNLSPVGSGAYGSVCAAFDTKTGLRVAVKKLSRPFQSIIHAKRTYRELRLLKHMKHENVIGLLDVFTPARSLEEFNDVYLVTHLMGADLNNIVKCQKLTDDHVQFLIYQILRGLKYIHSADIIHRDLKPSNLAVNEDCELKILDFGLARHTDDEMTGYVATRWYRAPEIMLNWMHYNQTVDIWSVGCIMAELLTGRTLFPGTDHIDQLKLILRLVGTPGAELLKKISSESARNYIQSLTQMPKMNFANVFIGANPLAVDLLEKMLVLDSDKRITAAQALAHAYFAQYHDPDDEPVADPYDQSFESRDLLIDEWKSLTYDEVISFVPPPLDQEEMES
A short description of data set [10]: Solubility of the compound in hank's buffered salt solution. Format: physicochemical.

Structures are written as SMILES. Where only a bound is given, the exact number is not on record here.

Mitogen-activated protein kinase 8, sequence (P45983 whole entry): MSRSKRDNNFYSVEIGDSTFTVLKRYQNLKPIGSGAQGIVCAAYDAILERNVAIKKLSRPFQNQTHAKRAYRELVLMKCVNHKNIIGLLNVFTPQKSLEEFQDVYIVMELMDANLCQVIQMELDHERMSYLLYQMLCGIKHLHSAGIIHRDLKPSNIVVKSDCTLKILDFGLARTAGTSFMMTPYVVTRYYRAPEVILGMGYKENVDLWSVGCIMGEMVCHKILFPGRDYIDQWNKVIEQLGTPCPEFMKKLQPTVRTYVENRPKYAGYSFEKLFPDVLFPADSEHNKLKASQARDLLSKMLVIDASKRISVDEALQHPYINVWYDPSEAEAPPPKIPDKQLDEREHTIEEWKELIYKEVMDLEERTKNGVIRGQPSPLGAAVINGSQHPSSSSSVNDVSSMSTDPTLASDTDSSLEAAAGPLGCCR
Mitogen-activated protein kinase 9, sequence (P45984 whole entry): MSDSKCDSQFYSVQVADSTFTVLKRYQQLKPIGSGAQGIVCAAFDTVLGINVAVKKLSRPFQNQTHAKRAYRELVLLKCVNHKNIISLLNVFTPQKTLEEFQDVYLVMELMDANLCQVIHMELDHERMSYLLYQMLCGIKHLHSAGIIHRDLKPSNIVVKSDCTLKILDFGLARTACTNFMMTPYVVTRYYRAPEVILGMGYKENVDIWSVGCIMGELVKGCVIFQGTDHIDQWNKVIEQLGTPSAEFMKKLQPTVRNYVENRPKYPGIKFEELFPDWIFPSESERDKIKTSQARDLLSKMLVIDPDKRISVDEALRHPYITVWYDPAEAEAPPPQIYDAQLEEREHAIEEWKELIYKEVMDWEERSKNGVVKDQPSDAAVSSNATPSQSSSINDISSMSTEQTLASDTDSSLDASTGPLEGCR

As for `N#Cc1csc(NC(=O)Cc2cccc3cnccc23)c1-c1ncn[nH]1`, in the data set on MDR1 [1], the efflux ratio (usually a quotient of directional permeabilities that is used to spot active efflux) amounted to 4.6. The IC50 – broadly, the concentration needed to halve the response being measured – in data set [2] was 11 nM; in data set [6], greater than 50000 nM; in data set [7], 26 nM; in [8], 7 nM; in data set [9], greater than 50000 nM. The Papp A→B – broadly, the apparent permeability from the apical to the basolateral side of a cell layer – in the data set with MDR1 [3] was 13.3 ×10⁻⁶ cm/s. In addition, the results for the remaining at 2 h, 5 µM in data set [4] and in data set [5] were 62% and 48%, respectively.
Take `COC(=O)c1c(C)csc1NC(=O)Cc1ccc(OCCCN2CCCCC2)cc1`: the results for the IC50 in data set [2], in data set [7] and in data set [8] were 295 nM, 613 nM and 99 nM, respectively.
For `COC(=O)c1c(C)csc1NC(=O)Cc1cccc2cc[nH]c12`, in that order: 686 nM, 4150 nM and 1020 nM.
For `CCc1csc(NC(=O)Cc2ccc(OC)cc2)c1C(=O)OC`, in that order: 19300 nM, 22500 nM and 9110 nM.
For `COC(=O)c1c(C)csc1NC(=O)CN1C(=O)CCc2ccccc21`, in that order: 78 nM, 703 nM and 125 nM.
Regarding `Cc1csc(NC(=O)CN2C(=O)CCc3ccccc32)c1-c1ncn[nH]1`, in the data set with MDR1 [1], the efflux ratio came to 3.2. The IC50 is 32 nM in data set [2], greater than 50000 nM in [6], 31 nM in [7] and greater than 50000 nM in data set [9]. For the same compound, the Papp A→B in the data set on MDR1 [3] was 14.8 ×10⁻⁶ cm/s. Besides, the remaining at 2 h, 5 µM in data set [4] and in data set [5] was 0% in each case.
Take `N#Cc1csc(NC(=O)CN2C(=O)CCc3ccccc32)c1-c1ncn[nH]1`: in the data set with MDR1 [1], the efflux ratio came to 4.1. For the same compound, the IC50 in data set [2] was 9 nM; in data set [6] it was greater than 50000 nM; in data set [7], 8 nM; in data set [8], 6 nM; in data set [9], greater than 50000 nM. Also, the Papp A→B with MDR1 [3] was determined as 18 ×10⁻⁶ cm/s. For the same compound, the values for the remaining at 2 h, 5 µM in [4] and in data set [5] were 39% and 37%, respectively.
Turning to `Cc1n[nH]c(-c2c(C)csc2NC(=O)Cc2ccc(OCCCN3CCCCC3)cc2)n1`, the IC50 was 463 nM in data set [2]; greater than 5000 nM in data set [6]; 1620 nM in [7]; 197 nM in data set [8]; greater than 5000 nM in [9].
`O=C(Cc1cccc2cnccc12)Nc1scc(Br)c1-c1ncn[nH]1`: the IC50 was 28 nM in [2]; greater than 50000 nM in [6]; 50 nM in data set [7]; 33 nM in [8]; greater than 50000 nM in [9].
On to `N#Cc1csc(NC(=O)Cc2cccc3ncccc23)c1-c1nnc[nH]1`, for which the IC50 in [2] was 12 nM; in data set [6], 35100 nM; in data set [7] it was 41 nM; in data set [8] it was 12 nM; in [9], greater than 50000 nM.
Regarding `COC(=O)c1c(C)csc1NC(=O)Cc1ccc(OCCCn2ccnc2)cc1`, the IC50 amounted to 597 nM in data set [2], 4520 nM in data set [7] and 504 nM in data set [8].
For the compound `O=C(Cc1cccc2ncccc12)Nc1scc(Br)c1-c1ncn[nH]1`, the IC50 is 42 nM in [2]; greater than 50000 nM in data set [6]; 90 nM in data set [7]; 34 nM in data set [8]; greater than 50000 nM in data set [9].
Turning to `O=C(CN1C(=O)CCc2ccccc21)Nc1scc(Br)c1-c1ncn[nH]1`, the IC50 in [2] is 25 nM; in data set [6], greater than 50000 nM; in [7], 42 nM; in data set [8], 28 nM; in [9], greater than 20000 nM.
For the compound `CCOC(=O)c1c(C#N)csc1NC(=O)Cc1ccc(OC)cc1`, the values for the IC50 in [2], in [7] and in data set [8] were 350 nM, 930 nM and 310 nM, respectively.
Turning to `Cc1n[nH]c(-c2c(C)csc2NC(=O)CN2C(=O)CCc3ccccc32)n1`, the IC50 in data set [2] was 15 nM; in data set [6], greater than 50000 nM; in data set [7], 42 nM; in data set [8] it was 25 nM; in data set [9], greater than 50000 nM.
For the compound `C#Cc1csc(NC(=O)Cc2ccc(OC)cc2)c1C(=O)OCC`, the IC50 turned out to be 1050 nM in data set [2], 28400 nM in data set [7] and 3020 nM in data set [8].
Take `O=C(CN1C(=O)CCc2ccccc21)Nc1scc(Cl)c1-c1ncn[nH]1`: in the data set with MDR1 [1], the efflux ratio came out at 0.9. Moreover, the IC50 is 4 nM in data set [2]; greater than 50000 nM in [6]; 9 nM in data set [7]; 5 nM in [8]; greater than 50000 nM in [9]. The Papp A→B with MDR1 [3] was 23.3 ×10⁻⁶ cm/s. In addition, the remaining at 2 h, 5 µM in data set [4] was found to be 20%; in data set [5], 0%.
Turning to `O=C(Cc1cccc2ncccc12)Nc1scc(Cl)c1-c1ncn[nH]1`, the IC50 in data set [2] is 15 nM; in [6], greater than 50000 nM; in [7], 42 nM; in data set [8], 18 nM; in data set [9], greater than 50000 nM.
As to `COC(=O)c1c(C)csc1NC(=O)Cc1cccc2ncccc12`, the IC50 in data set [2] is 55 nM; in data set [7] it was 409 nM; in data set [8], 110 nM.
The matching figures for `COC(=O)c1c(C)csc1NC(=O)Cc1ccc(OCCCN2CCCC2)cc1`: 284 nM, 2570 nM and 226 nM.
For `COc1ccc(CC(=O)Nc2scc(C)c2-c2nc(C)n[nH]2)cc1`, the IC50 in data set [2] amounted to 331 nM; in data set [7], 824 nM; in data set [8], 465 nM.
As to `COC(=O)c1sccc1NC(=O)Cc1cccs1`, the Papp A→B with MDR1 [3] was 14.4 ×10⁻⁶ cm/s. The solubility (usually how much of the substance goes into solution per volume) in [10] turned out to be 72 µM. Also, the IC50 in [6] was greater than 50000 nM; in data set [7] it was 23000 nM; in data set [9] it was greater than 50000 nM.
For the compound `CCOC(=O)c1c(C2CC2)csc1NC(=O)Cc1ccc(OC)cc1`, the IC50 in [2] amounted to 15600 nM; in data set [7] it was 6290 nM; in data set [8], 9620 nM.
Turning to `CCOC(=O)c1c(C(F)(F)F)csc1NC(=O)Cc1ccc(OC)cc1`, the values for the IC50 in data set [2], in [7] and in [8] were 18900 nM, greater than 50000 nM and 38800 nM, respectively.
For `COC(=O)c1c(C)csc1NC(=O)Cc1cccc2nccnc12`, in that order: 95 nM, 765 nM and 162 nM.
`Cc1csc(NC(=O)Cc2cccc3ncccc23)c1-c1ncn[nH]1`: in the data set on MDR1 [3], the Papp A→B turned out to be 16.1 ×10⁻⁶ cm/s. For the same compound, the remaining at 2 h, 5 µM in data set [4] is 46%; in data set [5], 1%. The results for the IC50 in data set [6], in [7] and in [9] were greater than 50000 nM, 125 nM and greater than 50000 nM, respectively.
Take `Cc1n[nH]c(-c2c(C)csc2NC(=O)Cc2cccc3ncccc23)n1`: the IC50 is 45 nM in [2]; greater than 50000 nM in data set [6]; 81 nM in data set [7]; 80 nM in data set [8]; greater than 50000 nM in data set [9].
Regarding `COC(=O)c1c(C)csc1NC(=O)Cc1ccc(-c2ccncc2)cc1`, the IC50 in data set [2] was found to be 283 nM; in data set [7] it was 1840 nM; in data set [8], 263 nM.
The matching figures for `COC(=O)c1c(C)csc1NC(=O)Cc1cccc2cnccc12`: 31 nM, 863 nM and 62 nM.
For `COC(=O)c1c(C)csc1NC(=O)Cc1ccc(OC)cc1`, in that order: 590 nM, 3140 nM and 700 nM.
In the case of `Cc1nnc(-c2c(C)csc2NC(=O)Cc2ccc(-c3ccncc3)cc2)[nH]1`, the IC50 in data set [6] is greater than 5000 nM; in data set [8], 324 nM; in data set [9], greater than 5000 nM.
Turning to `Cc1n[nH]c(-c2c(C)csc2NC(=O)Cc2cccc3nccnc23)n1`, the concentration for half-maximal inhibition (IC50) in data set [2] is 298 nM; in data set [6], greater than 5000 nM; in [7], 230 nM; in data set [8], 594 nM; in data set [9], greater than 5000 nM.
